Results: patent US12653805B2, “Targeting LASP1, eIF4A1, eIF4B and CXC4 with modulators and combinations thereof for cancer therapy” (The University of Toledo, priority 2019, dated 2026)
pIC50: −log10 of the molar value.

Key:
[1] = system: BCSCs; details: cited from earlier work
[2] = system: triple-negative breast cancer (TNBC) cells; experiment: Cell viability studies with CAST compounds; type: cell-based; details: for concentration level at which efficacy on tumor cell viability was shown: TNBC cell viability
[3] = system: LASP1-eIF4A interaction in 231S cells; experiment: Proximity ligation assay (PLA) of LASP1-eIF4A interaction; type: cell-based, human; details: 100 nM AMD3465 30 min prior to 20 nM CXCL12 5 min
Procedure: The Duolink In Situ Orange Fluorescent kit (Sigma/Aldrich, St. Louis, Mo., Cat. No. DUO92102-1KT) was employed to detect the endogenous interaction between LASP1 and eIF4A in situ in 231S cells. The PLA was performed according to the manufacturer's instructions using a rabbit eIF4A1 antibody (Cohesion Biosciences, London, Purley, Cat. No. CQA1180) and a mouse LASP1 antibody (Biolegend, San Diego, Calif., Cat. No. 909301). The single Ab control condition represents the PLA reaction with only the LASP1 antibody. In addition, cells were stained with phalloidin (Life Technologies, Carlsbad, Calif., Cat. No. A12379) and nuclei with DRAQ5 (Thermo Scientific, Rockford, Ill., Cat No. 62251). Cells were stimulated and inhibited as described. Moreover, cells were fixed, stained, and permeabilized with standard methods. The images were acquired by two-photon confocal microscopy and processed with Leica Application Suite X software (Leica, Wetzlar, Germany). Quantification of the interaction dots was performed using ImageJ.

[4] = system: CXCR4 signaling in 231S cells; experiment: Western blotting of phosphorylation of eIF4B, PDCD4, 4E-BP1 after CXCR4 activation; type: cell-based, human
Procedure: Cell lysates were prepared and quantified as described. Western blots were incubated with the following 1° Abs: Cyclin D1 (Cell Signaling Technology, Danvers, Mass., Cat. No. 2922), eIF4A C32B4 (Cell Signaling Technology, Danvers, Mass., Cat. No. 2013), eIF4B 1F5 (Cell Signaling Technology, Danvers, Mass., Cat. No. 13088), p-eIF4B S422 (Thermo Scientific, Rockford, Ill., Cat No. PA5-38362), eIF4E C46H6 (Cell Signaling Technology, Danvers, Mass., Cat. No. 2067), eIF4G C45A4 (Cell Signaling Technology, Danvers, Mass., Cat. No. 2469), GST 26H1 (Cell Signaling Technology, Danvers, Mass., Cat. No. 2624), LASP1 8C6 (Biolegend, San Diego, Calif., Cat. No. 909301), MDM2 SMP14 (Santa Cruz Biotechnology, Dallas, Tex., Cat. No. sc-965), PDCD4 D29C6 (Cell Signaling Technology, Danvers, Mass., Cat. No. 9535), p-PDCD4 S67 (Sigma-Aldrich, St. Louis, Mo., Cat. No. P0072), ROCK1 C8F7 (Cell Signaling Technology, Danvers, Mass., Cat. No. 4035), survivin 71G4B7 (Cell Signaling Technology, Danvers, Mass., Cat. No. 2808), 4E-BP1 53H11 (Cell Signaling Technology, Danvers, Mass., Cat. No. 9644), p-4E-BP1 Thr70 (Cell Signaling Technology, Danvers, Mass., Cat. No. 9455), and β-tubulin D66 (Sigma/Aldrich, St. Louis, Mo., Cat. No. T0198). Following primary incubation, Western blots were incubated with Goat anti-Mouse IgG (H+L) Superclonal™ Secondary Ab conjugated to HRP (Thermo Scientific, Rockford, Ill., Cat No. A28177) or Goat anti-Rabbit IgG (H+L) Superclonal™ Secondary Ab conjugated to HRP (Thermo Scientific, Rockford, Ill., Cat No. A27036). Finally, blots were developed with Amersham™ ECL™ Prime Western Blotting Detection Reagent (GE Healthcare Life Sciences, Pittsburgh, Pa., Cat. No. RPN2232) and HyBlot ES™ Autoradiography Film (Denville Scientific, Swedesboro, N.J., Cat. No. E3212). Densitometry of the Western blots was performed using ImageJ. Calculation of fold change is given in the figure legend for each experiment.

[5] = system: eIF4F complex in 231S cells; experiment: m7GTP pulldown assay (eIF4F complex); type: cell-based, human
Procedure: 231S cells were serum starved for 1 h and cells were stimulated (and prepared) as described in the co-immunoprecipitation section. 100 nM AMD3465 (CXCR4 antagonist, Sigma-Aldrich, St. Louis, Mo., Cat. No. SML1433-5MG) was incubated 30 min prior to stimulation. 1 mg of total protein lysate in 1 mL of Co-IP buffer was incubated with 25 μL of m7-GTP agarose beads overnight at 4° C. (Jena Biosciences, Jena, Germany, Cat. No. AC-155S). Following incubation, beads were washed with Co-IP buffer. Protein was eluted and analyzed by SDS-PAGE and Western blotting.

[6] = target: T1, eIF4A1 (Homo sapiens, UniProt P60842); type: cell-based; details: 3 different TNBC cell lines
T1 construct: A GQ-5′-UTR dual reporter was created in breast cancer cell lines; endogenous in cells
Description: A GQ-5′-UTR dual reporter was created in breast cancer cell lines which would report either a reduction in td-Tomato fluorescence or luciferase activity if eIF4A1 is inhibited by any of the compounds in the Prestwick library (FIGS. 26A-26B).

[7] = system: SUM-159-PT TNBC cells; experiment: Evaluation of paclitaxel-resistant SUM-159-PT cells; type: cell-based, human
Procedure: (§1) Briefly, to assess the cell viability, 3×10^3 cells/well (SUM-159PT, SUM Pac 200 nM, MDA-Bone-Un eIF4A CC and KO) were seeded and the cells were allowed to attach and spread overnight under adherent or non-adherent low attachment conditions.

[8] = system: SUM-159PT cells; experiment: Immunoblotting of SUM-159PT cells after chronic paclitaxel treatment (Pac 200)
[9] = system: paclitaxel-resistant SUM-159PT cells; experiment: Chemosensitivity to paclitaxel of CRISPR control and eIF4A1-KO cells derived from paclitaxel-resistant SUM-159PT (CellTiter-Glo); type: cell-based, human; details: 48 h; for pIC50: Homo sapiens, SUM-159-PT
Procedure: as §1
For generation of CRISPR/Cas9-mediated eIF4A1 knockout (KO), a set of CRISPR/Cas9 plasmids (Santa Cruz, Dallas, Tex., Cat. #—sc-402623) were transfected into therapy-naïve and paclitaxel-resistant tumor cells using UltraCruz reagent (Santa Cruz, Dallas, Tex., Cat. #— sc-395739) following the manufacturer's instructions. After 24 h, the supernatant was removed and replaced with regular media and cells were further cultured for a total of 72 h. eIF4A1 KO cells were sorted out based on the expression of green fluorescent protein (GFP). Single KO cells were isolated by limiting dilution in 96-well plates. The KO was verified by immunoblotting for eIF4A. Non-targeting CRISPR/Cas9 plasmids were employed to obtain the CRISPR-control cells (Santa Cruz, Dallas, Tex., Cat. #—sc-418922).

[10] = Pac 200 vs therapy naïve SUM-159PT
[11] = paclitaxel-resistant vs therapy-naïve SUM-159-PT

T1 sequence (P60842 whole entry): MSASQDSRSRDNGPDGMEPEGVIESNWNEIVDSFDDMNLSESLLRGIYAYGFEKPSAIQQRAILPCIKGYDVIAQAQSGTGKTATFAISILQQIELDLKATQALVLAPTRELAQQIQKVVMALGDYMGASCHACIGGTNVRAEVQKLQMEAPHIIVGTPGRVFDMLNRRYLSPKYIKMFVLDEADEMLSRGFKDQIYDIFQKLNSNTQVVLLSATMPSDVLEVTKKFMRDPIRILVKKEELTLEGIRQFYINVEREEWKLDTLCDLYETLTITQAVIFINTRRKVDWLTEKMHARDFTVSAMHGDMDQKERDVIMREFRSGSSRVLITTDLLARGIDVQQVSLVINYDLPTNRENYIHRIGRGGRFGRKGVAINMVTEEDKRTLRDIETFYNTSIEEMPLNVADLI

SMILES: O=C(O)C(Cc1ccccc1[N+](=O)[O-])=NNc1nc(-c2ccc(Cl)c(Cl)c2)cs1 (mixture of isomers) [4EGI-1]
- NANOG, OCT4 levels ([1]; 4EGI-1 treated BCSCs): downregulated
- proliferation of BCSCs [1]: effectively inhibited

SMILES: O=C(N/C(=C/c1cccnc1)c1nc2ccccc2[nH]1)c1cccc(Br)c1 [AE-848/14270010]
- cytotoxicity at 50 µM ([2]; CRISPR/control cells, lowest concentration of 50 μM, read-out: loss of viability of TNBC cells): ~35%
- viability at 50 µM ([2]; LASP1-knockout cells, 50 μM): 50%
- loss of viability ([2]; LASP1 genetically knocked out): 50%
- concentration level at which efficacy on tumor cell viability was shown [2]: 50 µM
- cell viability change ([2]; eIF4A1 knocked out cells): gain in viability

SMILES: c1ccc(CNCc2ccc(CN3CCCNCCNCCCNCC3)cc2)nc1 [AMD3465]
- LASP1-eIF4A interaction dots (interactions/cell) [3]: 13.3±10.2 dots
- effect on CXCL12-induced increase in p-eIF4B levels at 10 min ([4]; AMD3465): abrogated
- effect on CXCL12-induced increase in pT70-4E-BP1 levels ([4]; AMD3465): abrogated
- effect on CXCL12-induced increase in pS67-PDCD4 level at 5 min ([4]; AMD3465 pretreatment): abrogated
- effect on peak eIF4G recruitment at 5 min of CXCL12 ([5]; 100 nM AMD3465): reduced
- effect on CXCL12-dependent recruitment of LASP1 at 5 min ([5]; pre-treatment 100 nM AMD3465): abrogated

SMILES: Clc1ccccc1COc1ccc2ccccc2c1CNCc1cccnc1 [AN-465/41673523]
- concentration level at which efficacy on tumor cell viability was shown [2]: 75 µM

SMILES: C[C@]12CC[C@H](O)C[C@H]1CC[C@@H]1[C@@H]2CC[C@]2(C)[C@@H](C3=CC(=O)OC3)CC[C@]12O [digitoxigenin]
- activity of eIF4A1 [6]: potently inhibited

SMILES: COc1cccc2c1C(=O)c1c(O)c3c(c(O)c1C2=O)C[C@@](O)(C(=O)CO)C[C@@H]3O[C@H]1C[C@H](N)[C@H](O)[C@H](C)O1 [doxorubicin]
- cross-resistance of paclitaxel-resistant cells ([7]; paclitaxel-resistant SUM-159-PT cells): cross-resistant

SMILES: CC(=O)O[C@H]1C[C@H](O[C@H]2[C@@H](O)C[C@H](O[C@H]3[C@@H](O)C[C@H](O[C@H]4CC[C@@]5(C)[C@H](CC[C@@H]6[C@@H]5C[C@@H](O)[C@]5(C)[C@@H](C7=CC(=O)OC7)CC[C@]65O)C4)O[C@@H]3C)O[C@@H]2C)O[C@H](C)[C@H]1O[C@@H]1O[C@H](CO)[C@@H](O)[C@H](O)[C@H]1O [lanotoside C]
- activity of eIF4A1 [6]: potently inhibited

SMILES: CC(=O)O[C@H]1C(=O)[C@@]2(C)[C@H]([C@H](OC(=O)c3ccccc3)[C@]3(O)C[C@H](OC(=O)[C@H](O)[C@@H](NC(=O)c4ccccc4)c4ccccc4)C(C)=C1C3(C)C)[C@]1(OC(C)=O)CO[C@@H]1C[C@@H]2O [paclitaxel]
- enhanced expression of Cyclin D3 [8, 10]: 2.7 fold
- enhanced expression of NANOG [8, 10]: 1.4 fold
- enhanced expression of OCT4 [8, 10]: 3 fold
- enhanced expression of SOX2 [8, 10]: 2.7 fold
- enhanced expression of survivin or BIRC5 [8, 10]: 4 fold
- increase in ABCB1 (P-glycoprotein, MDR1) protein level [8, 10]: 10.8 fold
- increase in ABCG2 (BCRP) protein level [8, 10]: 2.4 fold
- increase in ALDH1A1 level [8, 10]: 2.4 fold
- increase in CD44 level [8, 10]: 6.1 fold
- increase in expression of eIF4A [8, 10]: 25.8 fold
- enhanced expression of ROCK1 ([8]; Pac 200 vs therapy naïve SUM-159PT, not statistically significant): 1.5 fold
- expression of E-cadherin [8, 11]: decreasing trend
- increase in Snail1 protein level [8, 11]: 2 fold
- increase in ABCB1 protein level, independent verification ([8]; three biological replicates, p<0.0001): 14 fold
- increase in ABCG2 protein level, independent verification ([8]; three biological replicates, p<0.001): 4 fold
- pIC50 ([9]; CRISPR-control SUM-159PT cells (from Pac 200)): 6.04
- pIC50 ([9]; eIF4A1-KO cells (from Pac 200)): 6.22
- change in IC50, eIF4A1-KO vs CRISPR-control ([9]; paclitaxel): −1.5 fold
- pIC50 ([7]; Homo sapiens, SUM-159-PT, parental SUM-159-PT cells, paclitaxel): 8.70
- resistance factor ([7]; paclitaxel-resistant vs parental SUM-159-PT): 675.5 fold
